Assay results published in patent US10072034B2, “Kinase inhibitors” (Respivert Limited, priority 2016, dated 2018).
In brackets after ≈: the same amount, converted by molar mass. Read-outs that look alike come from different tables or passages of the source.

What was measured:
c-Src = c-Src (Homo sapiens (Human), UniProt P12931); test: c-Src enzyme inhibition (FRET, Z-LYTE); assay type: biochemical
Procedure: (§1) The enzyme inhibitory activities of compounds disclosed herein are determined by FRET using synthetic peptides labelled with both donor and acceptor fluorophores (Z-LYTE, Invitrogen Ltd., Paisley, UK).
(§2) The inhibitory activities of compounds of the invention against c-Src and Syk enzymes (Invitrogen), are evaluated in a similar fashion to that described hereinabove. The relevant enzyme (3000 ng/mL or 2000 ng/mL respectively, 2.5 μL) is incubated with the test compound (either 1 μg/mL, 0.1 μg/mL, 0.01 μg/mL, or 0.001 μg/mL, 2.5 μL each) for 2 hr at RT. The FRET peptides (8 μM. 2.5 μL), and appropriate ATP solutions (2.5 μL, 800 μM for c-Src, and 60 μM ATP for Syk) are then added to the enzymes/compound mixtures and the mixture incubated for 1 hr. Development reagent (protease, 5 μL) is added for 1 hr prior to detection in a fluorescence microplate reader (Varioskan® Flash, ThermoFisher Scientific).
(§3) In all cases, the site-specific protease cleaves non-phosphorylated peptide only and eliminates the FRET signal. Phosphorylation levels of each reaction are calculated using the ratio of coumarin emission (donor) over fluorescein emission (acceptor), for which high ratios indicate high phosphorylation and low ratios indicate low phosphorylation levels. […]

Syk = Syk (Homo sapiens (Human), UniProt P43405); test: Syk enzyme inhibition (FRET, Z-LYTE); assay type: biochemical
Procedure: as §1, §2, §3

IL-8 release in PBMCs = test: LPS-induced IL-8 release in PBMC cells (assay (b)); assay type: cell-based; conditions: Homo sapiens, LPS-stimulated PBMCs
Excerpt: Peripheral blood mononuclear cells (PBMCs) from healthy subjects are separated from whole blood using a density gradient (Lymphoprep, Axis-Shield Healthcare). […] The supernatant is harvested for determination of IL-8 and TNFα concentrations by sandwich ELISA (Duo-set, R&D systems) and read on the fluorescence microplate reader (Varioskan® Flash, ThermoFisher Scientific).

TNFα release in PBMCs = test: LPS-induced TNFα release in PBMC cells (assay (b)); assay type: cell-based; conditions: Homo sapiens, LPS-stimulated PBMCs
Procedure: Peripheral blood mononuclear cells (PBMCs) from healthy subjects are separated from whole blood using a density gradient (Lymphoprep, Axis-Shield Healthcare). The PBMCs are seeded in 96 well plates and treated with compounds at the desired concentration for 2 hours before addition of 1 ng/mL LPS (Escherichia Coli 0111:B4 from Sigma Aldrich) for 24 hours under normal tissue culture conditions (37° C., 5% CO2). The supernatant is harvested for determination of IL-8 and TNFα concentrations by sandwich ELISA (Duo-set, R&D systems) and read on the fluorescence microplate reader (Varioskan® Flash, ThermoFisher Scientific). The concentration at 50% inhibition (IC50) of IL-8 and TNFα production is calculated from the dose response curve.

Jurkat cells = test: Cell cytotoxicity assay, Jurkat cell viability (assay (r)); assay type: cell-based, human; conditions: 24 hours
Procedure: 1×10^5 Jurkat cells (immortalised human T lymphocytes) are added to the appropriate number of wells of a 96 well plate in 100 μL of media (RPMI supplemented with 10% foetal bovine serum). 1 μL of DMSO control (final concentration 1.0% v/v) or test compound (final concentration 20, 5 or 1 μg/mL) is added to the wells and incubated at 37° C., 5% CO2. After 24 hours, the plate is centrifuged at 1200 rpm for 3 minutes and the supernatant discarded. Cells are then resuspended in 150 μL (final concentration 7.5 μg/mL) of propidium iodide (PI) in PBS and incubated at 37° C., 5% CO2 for 15 minutes. After 15 minutes, cells are analysed by flow cytometry (BD accuri) using the FL3 window. The % viability is calculated as the % of cells that are P negative in the test wells normalised to the DMSO control.

[1] = Solubility in fasted-state simulated colonic fluid (FaSSCoF) at pH 6.5; assay type: physicochemical; conditions: pH 6.5, 25° C.; for solubility thermodynamic at 24 h: fasted-state simulated colonic fluid (FaSSCoF), 25 °C, pH 6.5, fassgf or other biorelevant, thermodynamic from solid
Procedure: The solubilities of compounds of the invention in FaSSCoF at pH 6.5 are determined using a modification of a previously-reported procedure (Vertzoni, M., et al. Pharm. Res. 2010, 27, 2187-2196). In place of the bile salt extract employed in the original procedure (which extract is no longer available), the modified procedure uses a mixture of sodium taurocholate (0.15 g), glycocholic acid (0.15 g), ursodeoxycholic acid (0.05 g), cholic acid (0.05 g), and glycodeoxycholic acid (0.05 g). These five bile acids are ground together with a mortar and pestle to produce a fine white powder that is incorporated into the FaSSCoF, as outlined below.
FaSSCoF medium: Tris(hydroxymethyl)aminomethane (Tris; 0.275 g) and maleic acid (0.44 g) are dissolved in water (35 mL) to give a solution whose pH is adjusted to 6.5 by treatment with 0.5M NaOH (ca. 12 mL). The solution is then made up to 50 mL with water. A portion of this Tris/maleate buffer solution (ca. 25 mL) is added to a 0.5 L round-bottomed flask, before being treated with 0.00565 g of the bile acid mixture described above. Solutions of phosphatidylcholine (0.0111 g) in DCM (0.15 mL) and palmitic acid (0.0013 g) in DCM (0.15 mL) are added, then the organic solvent is evaporated off under reduced pressure at 40° C. until a clear solution, with no perceptible DCM odour, is achieved. The volume of the evaporated solution is adjusted to 50 mL by addition of the remainder of Tris/maleate buffer, then BSA (0.115 g) is added, before being dissolved by gentle agitation.
Solubility Determination: Test compounds are suspended in the pH 6.5 FaSSCoF medium to give a maximum final concentration of 2-10 mg/mL. The suspensions are equilibrated at 25° C. for 24 h, before being filtered through a glass fibre C filter. The filtrates are then diluted as appropriate for injection and quantification by HPLC with reference to a standard. Different volumes of the standard, diluted and undiluted sample solutions are injected and the solubilities are calculated using the peak areas determined by integration of the peak found at the same retention time as the principal peak in the standard injection.

[2] = Microcentrifuge dissolution test 1): transfer from intestinal buffer (IB) to colonic buffer (CB); assay type: physicochemical; conditions: PBS pH 6.5, 37° C.
[3] = Run 1, read-out: pH 6.5 FaSSCoF Solubility Run 1
[4] = Run 2, read-out: pH 6.5 FaSSCoF Solubility Run 2

c-Src, sequence (P12931 whole entry, looked up): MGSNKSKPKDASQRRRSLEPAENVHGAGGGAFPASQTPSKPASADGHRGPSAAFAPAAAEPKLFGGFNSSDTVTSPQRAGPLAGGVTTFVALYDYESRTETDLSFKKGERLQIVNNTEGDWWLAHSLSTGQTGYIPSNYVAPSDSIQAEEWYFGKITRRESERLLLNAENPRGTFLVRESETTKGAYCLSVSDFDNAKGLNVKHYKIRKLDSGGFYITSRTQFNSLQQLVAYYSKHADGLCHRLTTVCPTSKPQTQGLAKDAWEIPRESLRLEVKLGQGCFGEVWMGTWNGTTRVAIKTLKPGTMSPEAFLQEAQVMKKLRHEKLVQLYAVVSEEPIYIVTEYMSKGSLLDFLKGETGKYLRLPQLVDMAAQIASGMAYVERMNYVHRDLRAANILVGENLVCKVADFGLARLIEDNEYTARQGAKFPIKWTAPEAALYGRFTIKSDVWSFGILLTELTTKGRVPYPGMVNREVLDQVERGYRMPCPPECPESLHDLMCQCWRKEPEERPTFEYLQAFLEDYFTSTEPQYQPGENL

SMILES	IC50 (c-Src)	IC50 (Syk)	IC50 (IL-8 release in PBMCs)	IC50 (TNFα release in PBMCs)	% Viability at 1 μg/mL (Jurkat cells)	% Viability at 5 μg/mL (Jurkat cells)	% Viability at 20 μg/mL (Jurkat cells)	solubility thermodynamic at 24 h [1, 3]	solubility thermodynamic at 24 h [1, 4]	Concentration, IB Timepoint −30 min [2]	pH 6.5 FaSSCoF Solubility Run 1 ([1]; 24 h, Run 1)	pH 6.5 FaSSCoF Solubility Run 2 ([1]; 24 h, Run 2)
COc1cc(Nc2cc(Oc3ccc(NC(=O)Nc4cc(C(C)(C)C)cc(NS(C)(=O)=O)c4OC)c4ccccc34)ccn2)cc(OCCOCCOCC(=O)O)c1 [Example 3]	18 nM	12 nM	17.3 nM	10.8 nM	99%	99%	96%	280 µg/mL (≈ 342 µM)	200 µg/mL (≈ 245 µM)	0.0 µg/mL		
C#Cc1cc(Nc2nccc(Oc3ccc(NC(=O)Nc4cc(C(C)(C)C)nn4-c4ccc(C)cc4)c4ccccc34)n2)cc(C(=O)NCCOCCOCCOC)c1 [Reference Compound B, 3-((4-((4-(3-(3-(tert-butyl)-1-(p-tolyl)-1H-pyrazol-5-yl)ureido)naphthalen-1-yl)oxy)pyrimidin-2-yl)amino)-5-ethynyl-N-(2-(2-(2-methoxyethoxy)ethoxy)ethyl)benzamide]								< 1 µg/mL	< 1 µg/mL	0.0 µg/mL		
COc1cc(Nc2nccc(Oc3ccc(NC(=O)Nc4cc(C(C)(C)C)cc(NS(C)(=O)=O)c4OC)c4ccccc34)n2)cc(OCCOCCOCCC(=O)O)c1 [Reference Compound A, 3-(2-(2-(3-((4-((4-(3-(5-(tert-butyl)-2-methoxy-3-(methylsulfonamido)phenyl)ureido)naphthalen-1-yl)oxy)-pyrimidin-2-yl)amino)-5-methoxyphenoxy)ethoxy)ethoxy)propanoic acid]					96%	93%	48%			0.0 µg/mL	0.007 mg/mL	0.007 mg/mL
